Like-named read-outs stand apart in the source and are kept apart here. Residues, ends and D or L forms follow the SMILES beside them.

Assay [1] addresses T1, binding between TBK1 and full-length Regnase-1 (FL_Reg1) (Homo sapiens, UniProt Q5D1E8).
T1 construct: made in house; host or cells: Expi293 cells
T1 sequence (Q5D1E8 1-599): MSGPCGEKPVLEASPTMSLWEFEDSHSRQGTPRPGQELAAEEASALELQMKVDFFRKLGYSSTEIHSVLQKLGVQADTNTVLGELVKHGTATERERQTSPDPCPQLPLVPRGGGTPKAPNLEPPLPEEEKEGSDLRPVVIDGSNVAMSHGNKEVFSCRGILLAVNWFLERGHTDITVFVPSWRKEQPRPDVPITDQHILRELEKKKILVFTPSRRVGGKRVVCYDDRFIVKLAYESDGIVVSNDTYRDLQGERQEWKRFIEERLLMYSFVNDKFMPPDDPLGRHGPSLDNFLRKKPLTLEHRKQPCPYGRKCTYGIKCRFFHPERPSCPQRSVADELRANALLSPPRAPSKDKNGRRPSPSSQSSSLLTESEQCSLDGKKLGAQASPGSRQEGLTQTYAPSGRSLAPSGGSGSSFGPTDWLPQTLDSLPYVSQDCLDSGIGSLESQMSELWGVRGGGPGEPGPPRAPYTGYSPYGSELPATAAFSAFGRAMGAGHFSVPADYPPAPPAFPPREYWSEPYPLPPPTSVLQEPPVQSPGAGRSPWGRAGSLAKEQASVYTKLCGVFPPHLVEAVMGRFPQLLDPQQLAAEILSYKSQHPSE
The assay is described as follows: Inhibition of kinase-Regnase-1 binding by the compounds (AlphaScreen), TBK1. A digest of the protocol: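 Read-out was AlphaScreen luminescence using anti-FLAG acceptor and glutathione donor beads, with Regnase-1 alone set as 100% and DMSO as 0% inhibition to fit IC50. Compound was premixed with 2.5 nM full-length human Regnase-1 (Expi293-expressed, FLAG/BirA-tagged). 2.5 nM TBK1 or IKKβ was then added for 2 h at room temperature.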

Assay [2] has as its target T2, ΔCTD_Reg1 (amino acids 1 to 546 of human Regnase-1) phosphorylation by IKKβ (Homo sapiens, UniProt Q5D1E8).
T2 construct: made in house; host or cells: Expi293 cells
T2 sequence (Q5D1E8 1-546): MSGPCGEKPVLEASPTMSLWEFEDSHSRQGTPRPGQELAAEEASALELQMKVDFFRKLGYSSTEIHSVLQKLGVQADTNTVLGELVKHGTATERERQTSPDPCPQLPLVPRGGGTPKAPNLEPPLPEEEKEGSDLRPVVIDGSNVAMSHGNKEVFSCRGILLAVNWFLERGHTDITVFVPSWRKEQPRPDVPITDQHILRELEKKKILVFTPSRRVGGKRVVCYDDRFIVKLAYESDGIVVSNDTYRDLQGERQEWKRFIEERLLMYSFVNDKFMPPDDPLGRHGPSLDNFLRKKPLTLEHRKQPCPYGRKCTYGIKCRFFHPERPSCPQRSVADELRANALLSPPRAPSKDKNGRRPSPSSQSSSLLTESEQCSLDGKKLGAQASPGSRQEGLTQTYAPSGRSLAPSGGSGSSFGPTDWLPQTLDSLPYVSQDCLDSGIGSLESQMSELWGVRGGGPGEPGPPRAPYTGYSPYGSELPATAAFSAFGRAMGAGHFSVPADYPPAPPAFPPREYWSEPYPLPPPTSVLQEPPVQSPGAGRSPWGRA
The assay is described as follows: Regnase-1 phosphorylation inhibition by compounds (AlphaScreen), IKKβ, CTD-deficient Regnase-1. The assay is classed as biochemical. How it is done:
Among the full-length human Regnase-1 sequence, the 1st to 546th amino acid sequence was prepared and made into a construct having a FLAG tag on the N-terminal side and a biotin ligase BirA recognition sequence on the C-terminal side (herein, a Regnase-1 lacking the C-terminal domain of Regnase-1 (amino acids 547 to 599 in the case of SEQ ID NO: 2) is referred to as “ΔCTD_Reg1”. “ΔCTD_Reg1” is different from “Regnase-1ΔCTD”, which is a C-terminal domain deletion variant resulting from a frameshift mutation caused by a 1 bp deletion at codon 517, as prepared in Example 13). In addition, the sequence from amino acids 301 to 599 of the full-length human Regnase-1 sequence was designated as C-terminal Regnase-1, and a construct having a FLAG tag on the N-terminal side and a recognition sequence for biotin ligase BirA on the C-terminal side was prepared (Reg1_301-599). The above-mentioned Regnase-1 was expressed in mammalian Expi293 cells, purified with FLAG M2 agarose, and isolated by gel filtration chromatography. When biotinylation was required, methods of nonpatent documents (BMC biotechnology, 2008,8,41; and Protein Science, 1999,8,921-929) were used.
Using Kinase assay buffer III (manufactured by SignalChem) supplemented with 2 mM DTT, 100 μM sodium vanadate, and 2 mM manganese chloride, kinase (IKKβ (manufactured by SignalChem) or TBK1 (manufactured by SignalChem)) and Regnase-1 were reacted in the presence of 10 μM ATP at room temperature for 2 hours to perform a phosphorylation reaction.
Phosphorylated Regnase-1 was detected by the AlphaScreen system. After each of the above-mentioned phosphorylated Regnase-1 antibodies was added and reacted at room temperature for one hour, anti-FLAG AlphaLISA Acceptor Beads (manufactured by PerkinElmer) and Protein A AlphaScreen Donor Beads (manufactured by PerkinElmer) were added, and EnVision (manufactured by PerkinElmer) was used to measure the excited luminescence. As a result, phosphorylated Regnase-1 produced by the phosphorylation reaction by kinase was specifically detected, and signals were confirmed to be enhanced in a manner dependent on Regnase-1 and kinase concentrations (FIG. 24).
After mixing 2 nM of the above-mentioned Regnase-1 and the compound, phosphorylated Regnase-1 produced by the phosphorylation reaction was detected by the AlphaScreen system. As the results, the inhibition rate was calculated from the signals obtained when adding the compound at each concentration, by defining the signal obtained with Regnase-1 alone to be 100% inhibition rate, and the signal obtained when the same amount of solvent (DMSO) is added in place of the compound as 0% inhibition rate. The 50% inhibition concentration (μM) was calculated from the obtained dose response curve (Table 11).

Setting [3] is: Table 13, binding between TBK1 and Regnase-1, read-out: Binding inhibition FL_Reg1, 50% inhibition concentration (TBK1).
Setting [4] is: Table 12, 2.5 nM Regnase-1, 2.5 nM TBK1, AlphaScreen, read-out: 50% inhibition concentration, binding between Regnase-1 and TBK1, FL_Reg1.
The mark [5] stands for this setting: Table 11, 2 nM Regnase-1, AlphaScreen, read-out: 50% inhibition concentration, Regnase-1 phosphorylation, ΔCTD_Reg1, IKKβ.
[6] abbreviates: Table 14, phosphorylation by IKKβ, read-out: Phosphorylation inhibition ΔCTD_Reg1, 50% inhibition concentration (IKKβ).

`CC[C@H](C)[C@@H]1NC(=O)[C@H](CC(N)=O)NC(=O)[C@H](Cc2ccc(O)cc2)NC(=O)[C@H](Cc2c[nH]c3ccccc23)NC(=O)[C@H](CO)NC(=O)[C@H](CC(N)=O)NC(=O)[C@H](CO)NC(=O)[C@H](Cc2ccccc2)NC(=O)[C@H](CC(N)=O)NC(=O)[C@H](C)N(C)C(=O)C[C@@H](C(=O)N2CCCC2)NC(=O)[C@H](Cc2c[nH]c3ccccc23)NC1=O` [PP16] (HELM PEPTIDE1{[meA].N.F.S.N.S.W.Y.N.I.W.D.[C1CCN([*:1])C1]}$PEPTIDE1,PEPTIDE1,1:R1-12:R3$$$V2.0): the IC50 in assay [1] (setting [3]) was 20.2 µM.
As for `CC[C@H](C)[C@@H]1NC(=O)[C@H](CCCCN)NC(=O)[C@H](Cc2ccc(O)cc2)NC(=O)[C@H](Cc2ccccc2)NC(=O)[C@H](C(C)C)NC(=O)[C@H](C)N(C)C(=O)C[C@@H](C(=O)N2CCCC2)NC(=O)[C@H](Cc2c[nH]c3ccccc23)NC(=O)[C@H](CC(N)=O)NC(=O)[C@H](Cc2ccc(O)cc2)NC(=O)[C@H](Cc2c[nH]c3ccccc23)NC1=O` [PP19] (HELM PEPTIDE1{[meA].V.F.Y.K.I.W.Y.N.W.D.[C1CCN([*:1])C1]}$PEPTIDE1,PEPTIDE1,1:R1-11:R3$$$V2.0), the IC50 in assay [1] (setting [3]) amounted to 2.4 µM.
As to `CC[C@H](C)[C@@H]1NC(=O)[C@H](Cc2ccc(O)cc2)NC(=O)[C@H](C)N(C)C(=O)C[C@@H](C(=O)N2CCCC2)NC(=O)[C@H](CC(C)C)NC(=O)[C@H](CC(=O)O)NC(=O)CNC(=O)[C@H](Cc2ccccc2)NC(=O)[C@H](Cc2ccccc2)NC(=O)[C@H](CC(=O)O)NC(=O)[C@H](Cc2c[nH]c3ccccc23)NC1=O` [PP4] (HELM PEPTIDE1{[meA].Y.I.W.D.F.F.G.D.L.D.[C1CCN([*:1])C1]}$PEPTIDE1,PEPTIDE1,1:R1-11:R3$$$V2.0), the IC50 in assay [1] (setting [4]) amounted to 24.4 µM; in assay [2] (setting [5]), 8.3 µM.
Consider `CC[C@H](C)[C@@H]1NC(=O)[C@H](CC(N)=O)NC(=O)[C@H](Cc2ccc(O)cc2)NC(=O)[C@H](Cc2c[nH]c3ccccc23)NC(=O)[C@H](CO)NC(=O)[C@H](CC(N)=O)NC(=O)[C@H](C)NC(=O)[C@H](Cc2ccc(O)cc2)NC(=O)CNC(=O)[C@H](C)N(C)C(=O)C[C@@H](C(=O)N2CCCC2)NC(=O)[C@H](Cc2c[nH]c3ccccc23)NC1=O` [PP2] (HELM PEPTIDE1{[meA].G.Y.A.N.S.W.Y.N.I.W.D.[C1CCN([*:1])C1]}$PEPTIDE1,PEPTIDE1,1:R1-12:R3$$$V2.0), for which the IC50 in assay [1] (setting [4]) came to 15.5 µM; in assay [2] (setting [5]), 14 µM.
Turning to `CC[C@H](C)[C@@H]1NC(=O)[C@H](CC(=O)O)NC(=O)[C@H](C)N(C)C(=O)C[C@@H](C(=O)N2CCCC2)NC(=O)[C@H](Cc2ccc(O)cc2)NC(=O)[C@H](CC(=O)O)NC(=O)[C@H](Cc2c[nH]c3ccccc23)NC(=O)[C@H](Cc2ccc(O)cc2)NC(=O)[C@H](CC(=O)O)NC(=O)[C@H](Cc2ccccc2)NC(=O)[C@H](Cc2c[nH]c3ccccc23)NC1=O` [PP18] (HELM PEPTIDE1{[meA].D.I.W.F.D.Y.W.D.Y.D.[C1CCN([*:1])C1]}$PEPTIDE1,PEPTIDE1,1:R1-11:R3$$$V2.0), the values for the IC50 in assay [1] (setting [3]) and in assay [2] (setting [6]) were below 0.06 µM and 0.2 µM, respectively.
Regarding `CC[C@H](C)[C@@H]1NC(=O)[C@H](CO)NC(=O)[C@H](CCCNC(=N)N)NC(=O)[C@H](Cc2ccc(O)cc2)NC(=O)[C@H](Cc2ccc(O)cc2)NC(=O)[C@H](Cc2c[nH]c3ccccc23)NC(=O)[C@H](CO)NC(=O)[C@H](CCC(N)=O)NC(=O)[C@H](Cc2ccc(O)cc2)NC(=O)[C@H](CC(N)=O)NC(=O)[C@H](C)N(C)C(=O)C[C@@H](C(=O)N2CCCC2)NC(=O)[C@H](Cc2c[nH]c3ccccc23)NC1=O` [PP10] (HELM PEPTIDE1{[meA].N.Y.Q.S.W.Y.Y.R.S.I.W.D.[C1CCN([*:1])C1]}$PEPTIDE1,PEPTIDE1,1:R1-13:R3$$$V2.0), in assay [1] (setting [3]), the IC50 came to 9.8 µM.
`CC[C@H](C)[C@@H]1NC(=O)[C@H](CC(=O)O)NC(=O)[C@H](C)N(C)C(=O)C[C@@H](C(=O)N2CCCC2)NC(=O)[C@H](Cc2c[nH]c3ccccc23)NC(=O)[C@H](CC(=O)O)NC(=O)[C@H](Cc2c[nH]c3ccccc23)NC(=O)[C@H](Cc2ccc(O)cc2)NC(=O)[C@H](CC(=O)O)NC(=O)[C@H](Cc2ccccc2)NC(=O)[C@H](Cc2c[nH]c3ccccc23)NC1=O` [PP17] (HELM PEPTIDE1{[meA].D.I.W.F.D.Y.W.D.W.D.[C1CCN([*:1])C1]}$PEPTIDE1,PEPTIDE1,1:R1-11:R3$$$V2.0): the IC50 in assay [1] (setting [3]) was below 0.06 µM; in assay [2] (setting [6]) it was 0.3 µM.
In the case of `CC[C@H](C)[C@@H]1NC(=O)[C@H](CC(N)=O)NC(=O)[C@H]([C@@H](C)CC)NC(=O)[C@H](Cc2ccc(O)cc2)NC(=O)[C@H](Cc2c[nH]c3ccccc23)NC(=O)[C@H](CO)NC(=O)[C@H](CC(N)=O)NC(=O)[C@H](C)N(C)C(=O)C[C@@H](C(=O)N2CCCC2)NC(=O)[C@H](Cc2c[nH]cn2)NC(=O)CNC(=O)[C@H](Cc2c[nH]c3ccccc23)NC1=O` [PP15] (HELM PEPTIDE1{[meA].N.S.W.Y.I.N.I.W.G.H.D.[C1CCN([*:1])C1]}$PEPTIDE1,PEPTIDE1,1:R1-12:R3$$$V2.0), the IC50 amounted to 13.7 µM in assay [1] (setting [3]) and 31 µM in assay [2] (setting [6]).
Take `CC[C@H](C)[C@@H]1NC(=O)[C@H](CCCCN)NC(=O)[C@H](Cc2ccc(O)cc2)NC(=O)[C@H](Cc2c[nH]c3ccccc23)NC(=O)[C@H](CO)NC(=O)[C@H](CC(N)=O)NC(=O)[C@H](C)N(C)C(=O)C[C@@H](C(=O)N2CCCC2)NC(=O)[C@H](CC(C)C)NC(=O)CNC(=O)[C@H](Cc2c[nH]c3ccccc23)NC1=O` [PP21] (HELM PEPTIDE1{[meA].N.S.W.Y.K.I.W.G.L.D.[C1CCN([*:1])C1]}$PEPTIDE1,PEPTIDE1,1:R1-11:R3$$$V2.0): the IC50 in assay [1] (setting [3]) came out at 5.6 µM.
In the case of `CC[C@H](C)[C@@H]1NC(=O)[C@H](CCCNC(=N)N)NC(=O)[C@H](Cc2ccc(O)cc2)NC(=O)[C@H](Cc2c[nH]c3ccccc23)NC(=O)[C@H](CO)NC(=O)[C@H](CC(N)=O)NC(=O)[C@H](C)N(C)C(=O)C[C@@H](C(=O)N2CCCC2)NC(=O)[C@H](CC(C)C)NC(=O)CNC(=O)[C@H](Cc2c[nH]c3ccccc23)NC1=O` [PP22] (HELM PEPTIDE1{[meA].N.S.W.Y.R.I.W.G.L.D.[C1CCN([*:1])C1]}$PEPTIDE1,PEPTIDE1,1:R1-11:R3$$$V2.0), the IC50 in assay [1] (setting [3]) was 11.4 µM.
